Experimental data reported in patent US9661844B2, “Pesticide composition delivery vehicles” (Dow AgroSciences LLC, priority 2012, dated 2017).

Key:
[1] = system: banana plant; assay: Capsule field trial Location 2, banana growth parameters; format: in vivo; settings: 3.5 Kg/Ha granules
Excerpt: (§1) Field trials for the gel capsules of Example I were established under commercial conditions in banana production areas of Central America. Bananas were transplanted using commercial procedures typical of the area. Gel capsules according to Example I were used as a post-plant treatment. A commercial standard was also included as a comparison in each test. Treatments and use rates for both field trials are included in the Tables 3 and 4 below. Location 1 included four replications for each treatment and location 2 included three replications.
(§2) Gel caps were applied in the area immediately surrounding the base of the banana plant. Holes were made to a depth of 15-20 cm using a rod inserted into the soil. Gel caps were applied into the holes by hand and soil was reapplied into the holes to cover the gel caps. Commercial standards were formulated as granules and applied around the base of the plant without incorporation.
Several parameters were measured at intervals following application of the pesticide. Plant height and plant trunk diameter were evaluated over time at intervals of approximately two, four and six weeks after application of the pesticide. Root weight, percent functional roots and nematode counts were taken at intervals of 45 and 60 days after application (DAA). Plant height and trunk diameter were evaluated as direct measurements and are recorded in units of centimeters. Root weight, percent functional roots and nematode counts were obtained by separate soil samples which were taken and returned to the lab for analysis. Roots were separated from the soil and weighed. A separate, visual estimate was made to determine the percent of these roots that were healthy and functional. Nematode counts were made by extracting them from the roots and soil and then estimating the total by counting the actual number in subsamples of the extracted materials.

[2] = system: nematode; assay: Capsule field trial Location 2, nematode count; format: in vivo; settings: 3.5 Kg/Ha granules
Excerpt: as §1, §2
Several parameters were measured at intervals following application of the pesticide. Plant height and plant trunk diameter were evaluated over time at intervals of approximately two, four and six weeks after application of the pesticide. Root weight, percent functional roots and nematode counts were taken at intervals of 45 and 60 days after application (DAA). Plant height and trunk diameter were evaluated as direct measurements and are recorded in units of centimeters. […]

CCOP(=O)(SC(C)CC)SC(C)CC (stereo not drawn) [cadusaphos, cadusafos]
Plant Height ([1]; 15 DAA): 143 cm
Stem diameter ([1]; 15 DAA): 30 cm
Plant Height ([1]; 29 DAA): 156 cm
Stem diameter ([1]; 29 DAA): 33 cm
Plant Height ([1]; 43 DAA): 169 cm
Stem diameter ([1]; 43 DAA): 36 cm
% Functional roots ([1]; 45 DAA): 82%
Root weight ([1]; 45 DAA): 44 gms
% Functional roots ([1]; 60 DAA): 86%
Root weight ([1]; 60 DAA): 53 gms
Nematode count ([2]; 45 DAA): 11,200a
Nematode count ([2]; 60 DAA): 23,733a
